According to patent US20100190768A1, “NOVEL FUSED PYROLE DERIVATIVE” (Dainippon Sumitomo Pharma Co., Ltd., priority 2005, published 2010):

Key:
human GRα protein = biological target: T1, human GRα protein (Homo sapiens, UniProt P04150); experiment: Binding inhibitory assay (displacement of 3H-dexamethasone from the cytoplasm fraction of baculovirus-infected insect cells); conditions: 100 nM test compound; 3H-Dex; NSB with 10 μM dexamethasone; read-out: Binding Inhibitory ratio (%) of 100 nM of test compound
T1 construct: made in house; host or cells: insect cells infected with baculovirus; cytoplasm fraction used
T1 sequence (P04150 1-777): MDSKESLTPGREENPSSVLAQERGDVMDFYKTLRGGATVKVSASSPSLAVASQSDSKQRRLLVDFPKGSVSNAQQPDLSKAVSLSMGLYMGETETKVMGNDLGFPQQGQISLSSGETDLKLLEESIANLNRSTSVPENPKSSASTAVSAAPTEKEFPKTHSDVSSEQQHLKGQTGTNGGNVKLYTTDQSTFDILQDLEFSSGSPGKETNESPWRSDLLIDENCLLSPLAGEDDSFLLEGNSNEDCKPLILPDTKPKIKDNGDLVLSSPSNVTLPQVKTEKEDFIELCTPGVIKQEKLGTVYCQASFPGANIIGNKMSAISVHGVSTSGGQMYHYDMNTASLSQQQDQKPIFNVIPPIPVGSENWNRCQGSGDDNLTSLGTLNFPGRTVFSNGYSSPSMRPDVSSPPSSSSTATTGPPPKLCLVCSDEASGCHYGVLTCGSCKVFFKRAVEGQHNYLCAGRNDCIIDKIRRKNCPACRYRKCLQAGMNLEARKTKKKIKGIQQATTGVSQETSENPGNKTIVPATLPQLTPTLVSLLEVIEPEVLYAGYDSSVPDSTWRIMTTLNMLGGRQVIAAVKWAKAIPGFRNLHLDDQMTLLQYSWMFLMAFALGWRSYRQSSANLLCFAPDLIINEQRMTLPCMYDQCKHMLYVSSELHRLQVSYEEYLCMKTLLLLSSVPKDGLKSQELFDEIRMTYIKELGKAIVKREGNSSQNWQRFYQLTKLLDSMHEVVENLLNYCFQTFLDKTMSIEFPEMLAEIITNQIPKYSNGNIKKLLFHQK
Method: Insect cells, which had been infected with baculovirus for expressing human GRα protein, were suspended in an approximately equal volume of a binding buffer (10 mM Tris-Cl, 1.5 mM EDTA, 10% glycerol, 5 mM DTT, 20 mM sodium molybdate, pH 7.6). The mixture was rapidly frozen with liquid nitrogen, and then melted at room temperature. This cycle was repeated totally twice in order to break the cell membrane. The mixture was ultracentrifuged under 100,000 g at 4° C. for one hour to give the supernatant, which was the cytoplasm fraction containing human GRα protein.
A polypropylene 96-well plate (manufactured by Costar Corporation, etc.) was placed on ice, and DMSO or a test compound (each 1 μl) was put into each well. A 10 nM ^3H-Dex solution (50 μl; tritiated dexamethasone; manufactured by Amersham) in the binding buffer, and a GR protein solution, i.e., a solution by diluting the above cytoplasm fraction with the binding buffer (50 μl) were added to each well, and the plate was lightly shaken with a plate mixer, and then left to stand at 4° C. for 16 to 20 hours (the final concentration of DMSO: 1%).
A 5% solution of dextran-coated active carbon (manufactured by Sigma) suspended in the binding buffer (50 μl) was put into each well, and the plate was lightly shaken with a plate mixer for 30 seconds. Then, the plate was centrifuged at 2500 rpm at 4° C. for 5 minutes, and the ^3H count in the supernatant (50 μl) was measured by a TopCount (manufactured by Perkin-Elmer Corporation). Each test compound was tested twice.
The binding activity was calculated as follows. The mean ^3H count in the presence of dexamethason (Dex) 10 μM was considered as NSB (non-specific binding), and the binding inhibitory ratio in each well was calculated by the following equation.
Binding Inhibitory Ratio (%)=100×{1−(cpm value of each well−NSB)/(mean cpm value of DMSO-well−NSB)}
(cpm means count per minute)
The mean binding inhibitory ratio of each well was calculated by the above equation to give a binding inhibitory ratio of each test compound.

H4-III-E cells = experiment: TAT (tyrosine aminotransferase) assay; assay type: cell-based; conditions: for activation at 10 µM / Agonistic activity of 10 μM test compound: 10 μM test compound alone, relative to maximum Dex-induced TAT activity (100%); for activation at 10 µM: read-out: Agonistic activity of 10 μM test compound; for Antagonistic activity of 10 μM test compound: 10 μM test compound together with 0.005 μM dexamethasone, inhibitory ratio against TAT activity increase by Dex
Method: H4-III-E cells, which had been continuously cultured in α-MEM medium A (supplemented with 10% inactivated FBS, 50 μM 2-mercapto-ethanol), were suspended in α-MEM medium A or α-MEM medium B (supplemented with 10% inactivated FBS, 50 μM 2-mercapto-ethanol, but without phenol red), and the cell suspension was seeded to a 96-well plate in an amount of 2×10^4 cells/100 μl/well, and the cells were cultured overnight. The supernatant in the medium was removed, and a test compound (100 μl, diluted with α-MEM medium A or α-MEM medium B) was added, and the cells were further cultured overnight. In order to measure the agonistic activity, a test compound was added alone, while in order to measure the antagonistic activity, a test compound was added simultaneously together with 0.005 μM dexamethasone and evaluated the extent of the inhibitory effect of said test compound against the TAT activity-inducing activity by dexamethasone.
The culture supernatant in the plate was removed by suction, and a cell lysate (20 μL; 1% NP-40, 0.2% Triton X-100, 0.25% DOC, 0.1% SDS, 1 mM EGTA, 150 mM NaCl, Tris (pH7.4), Protease inhibitor cocktail [2.5 mg/ml aprotinin, 2.5 mg/ml leupeptin, 2.5 mg/ml soybean trypsin inhibitor]) was added, and further thereto was added a TAT reaction reagent (150 μL; 10 N KOH, 0.125 M KH2PO4, 0.5 M α-ketoglutarate, 5 mM Pyridoxal-5′ phosphate, L-tyrosine), and the mixture was reacted at 37° C. for 15 minutes. Further, a 10N KOH (20 μL) was added thereto, and the mixture was reacted at 37° C. for 30 minutes, and the absorbance at 331 nm was measured by a microplate reader (SPECTRA MAX 250).
From the mean absorbance in the wells to which a test compound was added, the mean absorbance in the wells to which a compound and a TAT reaction solution were not added was subtracted.
Agonistic activity (%)=100×[(absorbance of the drug-treated group)−(absorbance of the group without TAT reaction reagent)]/[(absorbance of Dex-treated group)−(absorbance of the group without TAT reaction reagent)]
On the other hand, the antagonistic activity was calculated as follows.
Antagonistic activity (%)=Inhibitory ratio (%) against TAT activity increase by Dex=100−100×[(absorbance of the drug-treated group)−(absorbance of the group without a drug)]/[(absorbance of Dex-treated group)−(absorbance of the group without a drug)]
With regard to the agonistic activity and the antagonistic activity, the results of 10% or more were expressed as O, while the results of less than 10% were expressed as X.

| SMILES | inhibition at 0.1 µM (human GRα protein) | activation at 10 µM (H4-III-E cells) | Antagonistic activity of 10 μM test compound (H4-III-E cells) | Agonistic activity of 10 μM test compound (H4-III-E cells) |
| --- | --- | --- | --- | --- |
| C=CCC(O)(c1cn(Cc2ccccc2)c2cc([N+](=O)[O-])ccc12)C(F)(F)F (stereo not drawn) [Example 8, 2-(1-Benzyl-6-nitro-1H-indol-3-yl)-1,1,1-trifluoropent-4-en-2-ol] | 98% | < 10% | ◯ |  |
| O=[N+]([O-])c1ccc2c(C(O)(CN3CCN(S(=O)(=O)c4ccccc4)CC3)C(F)(F)F)cn(Cc3ccccc3)c2c1 (stereo not drawn) [Example 112, 2-(1-Benzyl-6-nitro-1H-indol-3-yl)-1,1,1-trifluoro-3-[4-(phenylsulfonyl)piperazin-1-yl]propan-2-ol] | 98% | < 10% | ◯ |  |
| CN(C(=O)C1CCN(CC(O)(c2cn(Cc3ccccc3)c3cc([N+](=O)[O-])ccc23)C(F)(F)F)CC1)c1ccccc1 (stereo not drawn) [Example 95, 1-[2-(1-Benzyl-6-nitro-1H-indol-3-yl)-3,3,3-trifluoro-2-hydroxypropyl]-N-methyl-N-phenylpiperidine-4-carboxamide] | 59% | < 10% | ◯ |  |
| Cc1ccccc1C(=O)CC(O)(c1cn(Cc2ccccc2)c2cc([N+](=O)[O-])ccc12)C(F)(F)F (stereo not drawn) [Example 68, 3-(1-Benzyl-6-nitro-1H-indol-3-yl)-4,4,4-trifluoro-3-hydroxy-1-(2-methylphenyl)-butan-1-one] | 79% | < 10% | ◯ |  |
| CC(C)(C)OC(=O)N1CCN(CC(O)(c2cn(Cc3ccccc3)c3cc([N+](=O)[O-])ccc23)C(F)(F)F)CC1 (stereo not drawn) [Example 100, tert-Butyl 4-[2-(1-benzyl-6-nitro-1H-indol-3-yl)-3,3,3-trifluoro-2-hydroxypropyl]-piperazine-1-carboxylate] | 101% |  | ◯ | ◯ |
| O=[N+]([O-])c1ccc2c(C(O)(CN3CCC(S(=O)(=O)c4ccccc4)CC3)C(F)(F)F)cn(Cc3ccccc3)c2c1 (stereo not drawn) [Example 184, 2-(1-Benzyl-6-nitro-1H-indol-3-yl)-1,1,1-trifluoro-3-[4-(phenylsulfonyl)piperidin-1-yl]propan-2-ol] | 97% |  | X (the results of less than 10% were expressed as X) | ◯ |
| O=C(O)CCc1ccc(OC2CCN(CC(O)(c3cn(Cc4ccccc4)c4cc([N+](=O)[O-])ccc34)C(F)(F)F)CC2)cc1 (stereo not drawn) [Example 182, 3-[4-({1-[2-(1-Benzyl-6-nitro-1H-indol-3-yl)-3,3,3-trifluoro-2-hydroxypropyl]-piperidin-4-yl}oxy)phenyl]propanoic acid] | 99% |  | ◯ | ◯ |
| O=[N+]([O-])c1ccc2c(C(O)(CN3CCC(Oc4ccccc4Cl)CC3)C(F)(F)F)cn(Cc3ccccc3)c2c1 (stereo not drawn) [Example 119, 2-(1-Benzyl-6-nitro-1H-indol-3-yl)-3-[4-(2-chlorophenoxy)piperidin-1-yl]-1,1,1-trifluoropropan-2-ol] | 78% |  | ◯ | ◯ |
| CCOC(=O)CCCCNCC(O)(c1cn(Cc2ccccc2)c2cc([N+](=O)[O-])ccc12)C(F)(F)F (stereo not drawn) [Example 173, Ethyl 5-{[2-(1-benzyl-6-nitro-1H-indol-3-yl)-3,3,3-trifluoro-2-hydroxypropyl]-amino}pentanoate] | 88% | < 10% | ◯ |  |
| COc1ccc(Cn2cc(C(O)(CN3CCC(Oc4ccc(CC(=O)O)cc4OC)CC3)C(F)(F)F)c3ccc(C#N)cc32)cc1 (stereo not drawn) [Example 226, {4-[(1-{2-[6-Cyano-1-(4-methoxybenzyl)-1H-indol-3-yl]-3,3,3-trifluoro-2-hydroxypropyl}piperidin-4-yl)oxy]-3-methoxyphenyl}acetic acid] | 96% |  | ◯ | ◯ |
| CCOC(=O)Cc1ccc(OC2CCN(CC(O)(c3cn(Cc4ccccc4)c4cc([N+](=O)[O-])ccc34)C(F)(F)F)CC2)c(OC)c1 (stereo not drawn) [Example 200, Ethyl[4-({1-[2-(1-benzyl-6-nitro-1H-indol-3-yl)-3,3,3-trifluoro-2-hydroxypropyl]-piperidin-4-yl}oxy)-3-methoxyphenyl]acetate] | 88% |  | ◯ | ◯ |
| O=[N+]([O-])c1ccc2c(C(O)(CN3CCC4(CC3)CS(=O)(=O)c3ccccc3O4)C(F)(F)F)cn(Cc3ccccc3)c2c1 (stereo not drawn) [Example 123, 2-(1-Benzyl-6-nitro-1H-indol-3-yl)-3-(4,4-dioxido-1′H-spiro[1,4-benzoxathiine-2,4′-piperidin]-1′-yl)-1,1,1-trifluoropropan-2-ol] | 72% | < 10% | ◯ |  |
| CCOC(=O)Cc1ccc(OC2CCN(CC(O)(c3cn(Cc4ccccc4)c4cc([N+](=O)[O-])ccc34)C(F)(F)F)CC2)cc1 (stereo not drawn) [Example 179] | 81% |  | ◯ | ◯ |
| CN1CCCN(C(=O)c2ccc(OC3CCN(CC(O)(c4cn(Cc5ccccc5)c5cc([N+](=O)[O-])ccc45)C(F)(F)F)CC3)cc2)CC1 (stereo not drawn) [Example 203, 2-(1-Benzyl-6-nitro-1H-indol-3-yl)-1,1,1-trifluoro-3-(4-{4-[(4-methyl-1,4-diazepan-1-yl)carbonyl]phenoxy}piperidin-1-yl)propan-2-ol] | 94% |  | ◯ | ◯ |
